# Assay results as given in article PMC4767605 (Cancer chemotherapy and pharmacology, 2016).
# System: ovarian cancer (MCUAS)
# Assay: Ovarian cancer xenograft in mice, combination with paclitaxel
# Format: in vivo
# Settings: ASP9853 in combination with paclitaxel, data not shown
smiles,measurement,value
"O.O.O=C(/C=C/c1ccc(Cl)cc1)N[C@@H](Cc1ccccn1)C(=O)NCC(=O)N1CCC(Oc2cc(C(F)(F)F)ncn2)CC1 [ASP9853, (2E)-3-(4-chlorophenyl)-N-[(1S)-2-oxo-2-{[2-oxo-2-(4-{[6-(trifluoromethyl)-4-pyrimidinyl]oxy}-1-piperidinyl)ethyl]amino}-1-(2-pyridinylmethyl)ethyl]acrylamide dehydrate]",Tumor growth inhibition,greater tumor growth inhibition
